# Reference: patent US20260224577A1, “METHODS OF TREATING HEART FAILURE WITH VIBEGRON” (SUMITOMO PHARMA CO., LTD., priority 2021, published 2026)
# How the values were obtained:
# [1] = biological target: T1, β2-adrenergic receptor (Homo sapiens, UniProt P07550); assay: Functional cellular cAMP (HTRF) assay, CHO cells expressing β2-ARs; type: cell-based; conditions: relative to procaterol
# T1 construct: expressed in transfected cells; host or cells: CHO
# Protocol: The potency and maximal effect of vibegron and mirabegron for β3-adrenergic receptors and the selectivity for each […] receptor were determined. Functional cellular assays for vibegron and mirabegron activity were performed using Chinese hamster ovary (CHO) cells expressing β1- or β2-ARs and human embryonic kidney (HEK) 293 cells expressing β3-ARs. Cells were incubated with vibegron, mirabegron, or the appropriate control (isoproterenol for β1 and β3, procaterol for β2). Responses were quantified using homogeneous time-resolved fluorescence of cyclic adenosine monophosphate. Half-maximal effective concentration (EC50) and maximum response (Emax) values were determined by nonlinear least-squares regression analysis.
# [2] = system: mice with induced myocardial infarction; assay: Post-MI chronic heart failure in mice, heart histology (Mason's trichrome); type: in vivo, mouse; conditions: for Average % Infarcted Myocardium / Average Left Ventricle Lumen Area: Week 6
# Description: Myocardial infarction was induced in 10-12 week C57B/6 wild-type mice and after 2 weeks echo cardiograms were used to assess the MI severity in each mouse. Mice were randomized for treatment based on similarity and severity of the induced infarct. The mice were started with either vibegron or vehicle (1-3 doses) administered by continuous infusion using 2 week minipumps (Azlet Corp.) that were filled with the appropriate dose and implanted subcutaneously on the back of each animal in the region of the scapula. The minipumps were replaced with new minipumps in the same location at the 2 week time point and dosed for 4 weeks in total. Cardiac function was assessed by echocardiography (Echo) at 0, 2, 4, and 6 weeks. Some mice were subjected to terminal catheterization to measure hemodynamic pressures and adrenergic responsiveness. At the end of the 4 week treatment period (i.e., 6 weeks after MI was induced), cardiac function was measured, mice were sacrificed for histology of the heart, and terminal blood was collected to confirm the serum concentration of vibegron.
# • 1. Day 0 (after 1-2 weeks acclimation)—pre-surgery Echo • 2. Perform LAD Ligation (MI) or Sham procedure • 3. Day 14—Echo and randomly assign groups • 4. Day 14—begin administration of vehicle and drug for 4 weeks • 5. Day 28—Echo (operator blinded to groups)—change pumps for another 2 week dosing • 6. Day 42—Echo (operator blinded to groups) • 7. Day 42—Some were used for hemodynamics and ISO dose response and all animals sacrificed. Some were used for histology and some for RNA/Protein analysis. Blood was also collected at the time of sacrifice to determine serum concentrations.
# At the end of the study period, blood samples were processed for subsequent analysis of compound and decided biomarkers. At the end of the study, the heart was either preserved in formalin (for section, and staining) or snap frozen (for isolation of whole heart RNA, DNA and protein) as described above.
# Histologies were obtained by sectioning the mouse hearts vertically in such a way that all four chambers were visible upon staining. The area of the left ventricle cavity was measured by staining with Mason's trichrome stain. The darker color indicates healthy myocardium and the lighter color indicates connective tissue, which is the largest component of infarcted myocardium.
# [3] = system: β3-AR over β2-AR and β1-AR; conditions: cell based in vitro assays; cited from earlier work
# T1 sequence (P07550 whole entry): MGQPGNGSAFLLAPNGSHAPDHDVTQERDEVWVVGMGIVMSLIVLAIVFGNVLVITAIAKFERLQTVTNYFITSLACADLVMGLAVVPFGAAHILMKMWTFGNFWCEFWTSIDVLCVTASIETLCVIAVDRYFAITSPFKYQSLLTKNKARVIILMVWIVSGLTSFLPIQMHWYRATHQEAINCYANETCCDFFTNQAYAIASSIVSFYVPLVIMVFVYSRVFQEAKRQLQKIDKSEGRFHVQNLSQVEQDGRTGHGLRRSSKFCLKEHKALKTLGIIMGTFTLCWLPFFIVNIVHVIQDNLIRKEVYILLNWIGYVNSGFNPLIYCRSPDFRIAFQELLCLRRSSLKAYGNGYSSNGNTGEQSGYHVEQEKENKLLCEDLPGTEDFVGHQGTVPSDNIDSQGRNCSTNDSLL
structure (smiles),measurement,setting,value
"O=C(Nc1ccc(C[C@@H]2CC[C@H]([C@H](O)c3ccccc3)N2)cc1)[C@@H]1CCc2nccc(=O)n21 [Vibegron, (6S)—N-[4-[[(2S,5R)-5-[(R)-hydroxy(phenyl)methyl]pyrrolidin-2-yl]methyl]phenyl]-4-oxo-7,8-dihydro-6H-pyrrolo[1,2-a]pyrimidine-6-carboxamide]",β2-adrenergic activity (% Activity),[1],2%
same,Amount of healthy myocardium after infarction (trichrome stain),"[2]; MI mice, 4 weeks of treatment, versus vehicle, FIGS. 5A-5F",increases the amount of healthy myocardium after infarction
same,Average % Infarcted Myocardium,"[2]; MI mice, high dose (10 mg/kg)",7.68%
same,Average Left Ventricle Lumen Area,"[2]; MI mice, high dose (10 mg/kg)","75,061 AU"
same,Average % Infarcted Myocardium,"[2]; MI mice, low dose (1 mg/kg)",21.79%
same,Average Left Ventricle Lumen Area,"[2]; MI mice, low dose (1 mg/kg)","170,789 AU"
same,Average % Infarcted Myocardium,"[2]; MI mice, medium dose (3 mg/kg)",18.85%
same,Average Left Ventricle Lumen Area,"[2]; MI mice, medium dose (3 mg/kg)","72,474 AU"
same,"Adverse effects in healthy hearts (LV lumen area, infarcted myocardium)","[2]; sham mice, high dose",no adverse effects
same,Average Left Ventricle Lumen Area,"[2]; sham mice, high dose (10 mg/kg)","46,167 AU"
same,Selectivity for activation of β3-AR over β2-AR and β1-AR,[3],"> 9,000 fold"
